Tested on: human washed platelets
Assay: In vitro platelet aggregation assay
Assay type: cell-based
Conditions: agent alone (TRAP 20 μM, ADP 20 μM or Ir-CPI 500 μg/100 μL); n=1
Description: Blood from healthy human donors, who had not taken anti-platelet agents within the 15 days prior to collection, was collected in citrated tubes and centrifuged for 13 min at 200 g. The platelet-rich plasma was collected and centrifuged for 13 min at 900 g in Tyrode buffer (138 mM NaCl, 2.9 mM KCl, 12 mM NaHCO3, 5.5 mM glucose, 1.8 mM CaCl2 and 0.4 mM MgCl2, pH 7.4) containing 0.2% BSA, apyrase 0.02 U/mL and PGI2 500 nM. Washed platelets were resuspended in the Tyrode/BSA 0.2%/apyrase/PGI2 solution and centrifuged at 900 g for 13 min. Platelets were resuspended in a Tyrode/BSA 0.2% solution at a concentration of 3.10^8 platelets/mL. Platelets were kept at 37° C. for 30 min in a solution containing […]. Next, platelets were incubated at 37° C. under agitation for 5 to 10 minutes in an aggregometer APACT 4004 with ADP (adenosine diphosphate), TRAP (Thrombin Receptor-Activating Peptide) and/or Ir-CPI.
The effect of Ir-CPI on platelet aggregation was assessed in vitro by using isolated human washed platelets (n=1).

Structure (SMILES): Nc1ncnc2c1ncn2[C@@H]1O[C@H](COP(=O)(O)OP(=O)(O)O)[C@@H](O)[C@H]1O [ADP, adenosine diphosphate, reference compound]
- Aggregation Latency: 51.8 s
- Aggregation Max: 6.9%
- Aggregation Slope: 19.4 %/min
